Laboratory results: US20220347175A1, “PYRIDAZINONE DERIVATIVE” (Sumitomo Dainippon Pharma Co., Ltd., priority 2018, published 2022)

Experiments:
human Nav1.1 = biological target: T1, human Nav1.1 (Homo sapiens, UniProt P35498); assay: Amplification of Nav1.1-derived voltage-dependent sodium current (Nav1.1 current), cell line stably expressing human Nav1.1, automated patch clamp; format: cell-based
T1 construct: host or cells: HEK293
Summary of the method: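 Amplification rate (%) is 100 × post-compound/pre-compound Nav1.1 peak current or AUC, minus 100. Ramp-evoked sodium currents were recorded by automated patch clamp in a human Nav1.1 HEK293 stable line, restricted to cells exceeding 500 pA, with compounds added in extracellular solution containing 1% DMSO.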

human Nav1.5 = biological target: T2, human Nav1.5 (Homo sapiens, UniProt Q14524); assay: Amplification of Nav1.5-derived voltage-dependent sodium current (Nav1.5 current), cell line stably expressing human Nav1.5, automated patch clamp; format: cell-based
T2 construct: expressed in transfected cells; host or cells: CHO-K1 (T-REx System, ThermoFisher Scientific)
Protocol: Test 2: Evaluation of the Amplification in Nav1.5-Derived Voltage-Dependent Sodium Current (Nav1.5 Current) by Using a Cell Line Stably Expressing Human Nav1.5
A CHO-K1 cell line (Chinese hamster ovary) stably expressing human Nav1.5 (Gene Bank Accession No: P000326.2) was obtained by using purchased T-Rex System (ThermoFisher Scientific, USA), and used for the present test. The effect of test compounds on the amplification of Nav1.5 current was evaluated by using a cell line stably expressing human Nav1.5 and HTS automated patch clamp system, similarly in the method using Nav1.1. In other words, test compounds were added in an extracellular fluid which contained 1% DMSO and 500 nmol/L Tetrodotoxin (TTX), and evaluated as a change of the peak value of Nav1.5 current and the area under the curve (AUC). The induction and the measurement of Nav1.5 current, the pharmacologic effect on Nav1.5 current, and a method for pharmacological evaluation were carried out by the same method as in Nav1.1.

[1] = 10 μmol/L compound, change of the area under the curve of Nav1.1 current (Test Result 1)
[2] = 10 μmol/L compound, change of the area under the curve of Nav1.5 current (Test Result 1)
[3] = compound 3 μmol/L, HEK293 stably expressing human Nav1.1
[4] = compound 3 μmol/L, CHO-K1 stably expressing human Nav1.5

T2 sequence (Q14524 1-2015 isoform Q14524-2): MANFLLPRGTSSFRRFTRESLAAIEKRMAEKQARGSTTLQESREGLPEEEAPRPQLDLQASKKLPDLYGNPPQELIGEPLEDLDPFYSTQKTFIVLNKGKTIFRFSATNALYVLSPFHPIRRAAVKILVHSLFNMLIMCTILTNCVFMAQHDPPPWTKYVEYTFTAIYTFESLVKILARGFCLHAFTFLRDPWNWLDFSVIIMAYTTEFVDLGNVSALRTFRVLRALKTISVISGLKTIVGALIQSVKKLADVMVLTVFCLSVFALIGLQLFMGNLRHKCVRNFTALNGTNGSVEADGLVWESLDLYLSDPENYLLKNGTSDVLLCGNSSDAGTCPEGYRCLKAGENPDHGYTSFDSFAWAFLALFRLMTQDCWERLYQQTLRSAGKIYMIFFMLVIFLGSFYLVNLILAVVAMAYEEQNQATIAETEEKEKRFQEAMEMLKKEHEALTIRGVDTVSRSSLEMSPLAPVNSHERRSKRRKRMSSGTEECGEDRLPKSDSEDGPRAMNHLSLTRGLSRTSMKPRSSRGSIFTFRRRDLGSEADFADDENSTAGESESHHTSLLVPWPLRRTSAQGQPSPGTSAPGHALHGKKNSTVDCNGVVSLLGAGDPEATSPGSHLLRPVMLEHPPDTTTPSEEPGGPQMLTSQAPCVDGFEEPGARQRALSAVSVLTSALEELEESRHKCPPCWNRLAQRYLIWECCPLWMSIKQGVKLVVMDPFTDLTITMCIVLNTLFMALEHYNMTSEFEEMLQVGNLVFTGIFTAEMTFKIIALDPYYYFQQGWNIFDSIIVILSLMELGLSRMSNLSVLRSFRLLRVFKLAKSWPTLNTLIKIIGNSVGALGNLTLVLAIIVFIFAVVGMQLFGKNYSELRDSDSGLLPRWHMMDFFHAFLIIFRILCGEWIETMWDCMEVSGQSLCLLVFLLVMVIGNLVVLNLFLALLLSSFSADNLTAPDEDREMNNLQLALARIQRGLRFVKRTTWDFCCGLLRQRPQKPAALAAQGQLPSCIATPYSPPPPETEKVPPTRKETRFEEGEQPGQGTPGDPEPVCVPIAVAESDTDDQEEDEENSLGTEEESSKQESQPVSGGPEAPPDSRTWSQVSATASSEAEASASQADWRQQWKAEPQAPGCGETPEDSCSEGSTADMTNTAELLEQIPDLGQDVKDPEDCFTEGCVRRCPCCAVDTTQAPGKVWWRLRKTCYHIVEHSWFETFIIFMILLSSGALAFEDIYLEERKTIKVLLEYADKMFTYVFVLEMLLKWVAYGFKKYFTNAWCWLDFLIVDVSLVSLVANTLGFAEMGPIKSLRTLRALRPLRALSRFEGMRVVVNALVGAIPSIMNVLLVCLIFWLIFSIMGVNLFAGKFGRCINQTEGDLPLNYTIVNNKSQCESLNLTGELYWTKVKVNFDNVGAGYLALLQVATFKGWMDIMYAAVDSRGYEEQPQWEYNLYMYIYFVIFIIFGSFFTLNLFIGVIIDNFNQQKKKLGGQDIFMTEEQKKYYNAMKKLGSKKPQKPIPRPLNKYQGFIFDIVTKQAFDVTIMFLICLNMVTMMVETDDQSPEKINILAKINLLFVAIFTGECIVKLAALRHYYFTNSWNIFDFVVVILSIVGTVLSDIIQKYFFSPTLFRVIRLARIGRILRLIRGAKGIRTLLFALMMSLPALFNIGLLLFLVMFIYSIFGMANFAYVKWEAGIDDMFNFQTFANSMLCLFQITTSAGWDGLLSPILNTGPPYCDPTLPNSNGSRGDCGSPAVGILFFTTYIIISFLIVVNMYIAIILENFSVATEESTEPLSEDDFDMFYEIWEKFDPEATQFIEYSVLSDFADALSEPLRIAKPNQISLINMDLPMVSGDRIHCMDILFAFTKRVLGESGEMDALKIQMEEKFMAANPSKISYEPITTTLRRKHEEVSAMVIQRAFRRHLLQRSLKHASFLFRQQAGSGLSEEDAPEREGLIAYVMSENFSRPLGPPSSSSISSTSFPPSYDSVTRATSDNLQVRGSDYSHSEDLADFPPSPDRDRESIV

SMILES	Nav1.1 current amplification rate (%) (human Nav1.1; [1])	Nav1.5 current amplification rate (%) (human Nav1.5; [2])	Nav1.1 current amplification rate (%) (human Nav1.1; [3])	Nav1.5 current amplification rate (%) (human Nav1.5; [4])
CC1CC=C(c2ccc(=O)n(CC(=O)N3CCc4c3ccnc4Cl)n2)CC1 (racemic) [Example 247]	53%	43%	–	–
CC1CC=C(c2ccc(=O)n(CC(=O)N3CCc4c(-c5cccnc5)cccc43)n2)CC1 (racemic) [Example 248]	–	–	392%	44%
COc1ncc(-c2cccc3c2CCN3C(=O)Cn2nc(C3=CCC(C)CC3)ccc2=O)cn1 (racemic) [Example 249]	–	–	584%	106%
CC1CC=C(c2ccc(=O)n(CC(=O)N3CCc4c(-c5ccncc5)cccc43)n2)CC1 (racemic) [Example 250]	–	–	564%	121%
CC1CC=C(c2ccc(=O)n(CC(=O)N3CCc4c(-c5ccnn5C)cccc43)n2)CC1 (racemic) [Example 251]	–	–	307%	15%
CC1CC=C(c2ccc(=O)n(CC(=O)N3CCc4c(-c5ccn(C)n5)cccc43)n2)CC1 (racemic) [Example 252]	–	–	254%	31%
CC1CC=C(c2ccc(=O)n(CC(=O)N3CCc4c(-c5ccnnc5)cccc43)n2)CC1 (racemic) [Example 253]	–	–	455%	85%
CC1CC=C(c2ccc(=O)n(CC(=O)N3CCc4c(-c5cn[nH]c5)cccc43)n2)CC1 (racemic) [Example 254]	–	–	309%	74%
CC1CC=C(c2ccc(=O)n(CC(=O)Nc3cccc4nccn34)n2)CC1 (racemic) [Example 255]	32%	15%	–	–
CC1CC=C(c2ccc(=O)n(CC(=O)N3CCC(c4ccccc4)CC3)n2)CC1 (racemic) [Example 256]	36%	−30%	–	–
CC1CC=C(c2ccc(=O)n(CC(=O)N3CC=C(c4ccccc4)CC3)n2)CC1 (racemic) [Example 257]	–	–	45%	0%
CC1CC=C(c2ccc(=O)n(CC(=O)N3CCN(c4ccccc4)CC3)n2)CC1 (racemic) [Example 258]	–	–	79%	4%
CC1CC=C(c2ccc(=O)n(CC(=O)N3CCC(c4ccncc4)CC3)n2)CC1 (racemic) [Example 259]	71%	2%	–	–
CC1CC=C(c2ccc(=O)n(CC(=O)N3CCC(c4ccccn4)CC3)n2)CC1 (racemic) [Example 260]	13%	−6%	–	–
CC1CC=C(c2ccc(=O)n(CC(=O)N3CCN(c4ccncc4)CC3)n2)CC1 (racemic) [Example 261]	60%	1%	–	–
CC1CC=C(c2ccc(=O)n(CC(=O)N3CCN(c4cncc(F)c4)CC3)n2)CC1 (racemic) [Example 263]	342%	32%	–	–
Cc1ncc(-c2cccc3c2CCN3C(=O)Cn2nc(C3=CCC(C)CC3)ccc2=O)cn1 (racemic) [Example 264]	–	–	597%	65%
CC1CC=C(c2ccc(=O)n(CC(=O)N3CCc4c(C5=CCNC5)cccc43)n2)CC1 (racemic) [Example 265]	–	–	110%	19%
CC1CC=C(c2ccc(=O)n(CC(=O)N3CCc4c(CO)cccc43)n2)CC1 (racemic) [Example 266]	–	–	108%	128%
CC1CC=C(c2ccc(=O)n(CC(=O)N3CCc4c(C5=CCN(C)C5)cccc43)n2)CC1 (racemic) [Example 267]	–	–	231%	79%
